Results taken from US9193722B2, “Tri-cyclic pyrazolopyridine kinase inhibitors” (Vertex Pharmaceuticals Incorporated, priority 2008, dated 2015).

Columns and labels:
Type in all cases: biochemical
[1] = target: PKC delta kinase (Homo sapiens, UniProt Q05655); experiment: PKC delta kinase inhibition, coupled-enzyme (NADH absorbance) assay, Ki; conditions: 150 μM ATP, 46 nM PKC delta kinase, 30° C.; read-out: Ki PKC delta
Procedure, shortened: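 Enzyme and compound pre-equilibrated 10 min at 30° C before adding ATP to 150 μM final. Buffer: HEPES pH 7.5 (100 mM), 10 mM MgCl2, 25 mM NaCl, 0.1 mM EDTA, 0.01% Brij.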

[2] = target: PKC alpha kinase (Homo sapiens, UniProt P17252); experiment: PKC alpha kinase inhibition, coupled-enzyme (NADH absorbance) assay, Ki; conditions: 130 μM ATP, 4.5 nM PKC alpha kinase, 30° C.
Procedure, shortened: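 Ki derived by non-linear regression of initial rates from a coupled assay tracking NADH absorbance at 340 nm over 15 min at 30 °C. ATP was 130 μM final after a 10 min compound–enzyme preincubation in HEPES pH 7.5 buffer with MgCl2, CaCl2, NaCl, EDTA and Brij.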

[3] = target: PKC theta kinase (Homo sapiens, UniProt Q04759); experiment: PKC theta kinase inhibition, coupled-enzyme (NADH absorbance) assay, Ki; conditions: 240 μM ATP, 18 nM PKC theta kinase, 30° C.
Procedure, shortened: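 Enzyme and compound equilibrated 10 min at 30 °C before reaction in HEPES pH 7.5 buffer with MgCl2, NaCl, EDTA and Brij. Activity tracked as NADH loss at 340 nm through a coupled system. Initial-rate data fitted by non-linear regression to give Ki.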

PKC delta kinase, sequence (Q05655 whole entry): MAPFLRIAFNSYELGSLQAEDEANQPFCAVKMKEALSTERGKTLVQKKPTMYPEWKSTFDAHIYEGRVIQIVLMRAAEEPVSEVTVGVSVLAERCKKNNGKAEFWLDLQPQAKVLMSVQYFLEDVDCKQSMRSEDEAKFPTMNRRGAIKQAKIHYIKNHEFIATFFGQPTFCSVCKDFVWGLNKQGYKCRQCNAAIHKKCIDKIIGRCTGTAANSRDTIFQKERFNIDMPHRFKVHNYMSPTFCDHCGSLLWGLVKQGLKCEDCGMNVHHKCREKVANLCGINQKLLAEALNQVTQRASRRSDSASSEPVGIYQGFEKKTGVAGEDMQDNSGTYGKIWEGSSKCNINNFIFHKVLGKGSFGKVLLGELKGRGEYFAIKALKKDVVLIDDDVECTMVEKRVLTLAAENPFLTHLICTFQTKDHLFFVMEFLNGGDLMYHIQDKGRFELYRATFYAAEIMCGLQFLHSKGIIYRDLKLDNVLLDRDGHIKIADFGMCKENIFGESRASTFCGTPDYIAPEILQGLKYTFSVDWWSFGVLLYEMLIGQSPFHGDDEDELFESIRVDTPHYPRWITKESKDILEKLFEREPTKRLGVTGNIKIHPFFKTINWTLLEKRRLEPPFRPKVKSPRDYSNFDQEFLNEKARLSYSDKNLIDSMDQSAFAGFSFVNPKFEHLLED
PKC theta kinase, sequence (Q04759 whole entry): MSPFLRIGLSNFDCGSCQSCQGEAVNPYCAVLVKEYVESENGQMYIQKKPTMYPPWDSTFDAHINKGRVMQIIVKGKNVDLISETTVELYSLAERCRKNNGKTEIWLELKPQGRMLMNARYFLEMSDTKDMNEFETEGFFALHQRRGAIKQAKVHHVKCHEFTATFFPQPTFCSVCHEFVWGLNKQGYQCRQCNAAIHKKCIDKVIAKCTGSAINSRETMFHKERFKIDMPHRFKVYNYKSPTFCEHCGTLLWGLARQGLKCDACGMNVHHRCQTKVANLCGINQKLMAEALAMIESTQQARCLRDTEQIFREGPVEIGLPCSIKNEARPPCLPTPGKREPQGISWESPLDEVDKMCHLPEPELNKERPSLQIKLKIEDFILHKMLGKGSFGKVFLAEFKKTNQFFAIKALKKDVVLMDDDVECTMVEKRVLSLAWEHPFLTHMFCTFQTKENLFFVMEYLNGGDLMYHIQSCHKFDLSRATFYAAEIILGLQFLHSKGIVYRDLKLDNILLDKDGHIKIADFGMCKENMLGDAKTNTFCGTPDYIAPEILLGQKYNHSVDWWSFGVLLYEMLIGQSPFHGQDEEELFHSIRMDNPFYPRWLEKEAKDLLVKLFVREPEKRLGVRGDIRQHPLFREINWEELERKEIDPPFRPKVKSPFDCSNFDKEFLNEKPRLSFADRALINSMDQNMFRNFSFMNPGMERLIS

Compound | Ki [1] [nM] | Ki [2] [nM] | Ki [3] [nM]
CC(C)CC1(C)CN(c2ccc(Cl)c(-c3n[nH]c4ncccc34)n2)CCN1 (stereo not drawn) [Compound 86] | < 50 | < 50 | < 50
NC1CCN(c2ccc(Cl)c(-c3n[nH]c4ncccc34)n2)CC1 [Compound 110] | < 2800 | > 1250 | < 500
CC(C)C(O)(C1CN(c2ccc(F)c(-c3n[nH]c4ncccc34)n2)CCN1)C(F)(F)F (stereo not drawn) [Compound 207] | < 2800 | > 1250 | < 50
NCC1CCN(c2ccc(F)c(-c3n[nH]c4ncccc34)n2)C1 (stereo not drawn) [Compound 289] | > 1250 | > 1250 | < 500
CC1(C)CC1(O)C1CN(c2ccc(F)c(-c3n[nH]c4ncccc34)n2)CCN1 (stereo not drawn) [Compound 383] | > 1250 | > 1250 | < 500
CC(F)(F)C(C)(O)C1CN(c2ccc(F)c(-c3n[nH]c4ncccc34)n2)CCN1 (stereo not drawn) [Compound 286] | < 500 | > 1250 | < 50
NC1CCCN(c2ccc(C(F)(F)F)c(-c3n[nH]c4ncccc34)n2)C1 (stereo not drawn) [Compound 122] | > 1250 | > 1250 | > 700
CC(C)CC1(C#N)CN(c2ccc(C(F)(F)F)c(-c3n[nH]c4ncccc34)n2)C1 [Compound 429] | > 1250 | > 1250 | > 700
CC(C)C[C@H]1CN(c2ccc(Cl)c(-c3n[nH]c4ncccc34)n2)CCN1 [Compound 47] | < 500 | < 2800 | < 50
Fc1ccc(C2CN(c3ccc(C(F)(F)F)c(-c4n[nH]c5ncccc45)n3)CCN2)cc1 (stereo not drawn) [Compound 171] | > 1250 | > 1250 | < 500
NC1CCN(c2ccc(F)c(-c3n[nH]c4ncccc34)n2)CC1 [Compound 368] | > 1250 | > 1250 | < 500
NCc1cccc(-c2cccc(-c3n[nH]c4ncccc34)n2)c1 [Compound 335] | < 2800 | < 2800 | < 2800
CC(C)C[C@H]1CN(c2cccc(-c3n[nH]c4ncccc34)n2)CC[C@@H]1N [Compound 130] | < 500 | < 2800 | < 50
CCC[C@H]1CN(c2ccc(C(F)(F)F)c(-c3n[nH]c4ncccc34)n2)C[C@H]1N [Compound 340] | > 1250 | > 1250 | > 700
N#CCCC1CN(c2ccc(F)c(-c3n[nH]c4ncccc34)n2)CCC1O (stereo not drawn) [Compound 458] | > 1250 | > 1250 | < 500
C=Cc1ccc(N2CCN[C@@H](CC(C)C)C2)nc1-c1n[nH]c2ncccc12 [Compound 51] | > 2000 | > 1250 | > 700
CCC[C@H]1CN(c2cccc(-c3n[nH]c4ncccc34)n2)CCCN1 [Compound 228] | < 500 | < 500 | < 50
CC(C)CC1(CN)CN(c2ccc(C(F)(F)F)c(-c3n[nH]c4ncccc34)n2)C1 [Compound 413] | > 1250 | > 1250 | > 700
CC(C)C[C@H]1CN(c2ccnc(-c3n[nH]c4ncccc34)n2)CCN1 [Compound 66] | < 2800 | > 1250 | < 500
CCNC(=O)C1CN(c2ccc(C(F)(F)F)c(-c3n[nH]c4ncccc34)n2)CCN1 (stereo not drawn) [Compound 216] | > 1250 | > 1250 | > 700
c1ccc(-c2ccc(N3CCNCC3)nc2-c2n[nH]c3ncccc23)cc1 [Compound 50] | > 2000 | > 1250 | > 700
CC(C)C(F)(F)C1CN(c2cccc(-c3n[nH]c4ncccc34)n2)CCN1 (stereo not drawn) [Compound 143] | < 2800 | > 1250 | < 500
Fc1ccc(N2CCC3(CCNC3)C2)nc1-c1n[nH]c2ncccc12 (stereo not drawn) [Compound 312] | > 1250 | > 1250 | > 700
CC(C)(O)CC1CN(c2ccc(C(F)(F)F)c(-c3n[nH]c4ncccc34)n2)CCN1 (stereo not drawn) [Compound 72] | > 2000 | > 1250 | < 500
CCC[C@H]1CN(c2cccc(-c3n[nH]c4ncccc34)n2)CC(F)(F)CN1 [Compound 227] | > 1250 | > 1250 | < 500
CC(C)C[C@H]1CN(c2ccc(C(F)(F)F)c(-c3n[nH]c4ncccc34)n2)C[C@H](C)N1 [Compound 202] | > 1250 | > 1250 | > 700
NC(=O)C1CCCN(c2ccc(F)c(-c3n[nH]c4ncccc34)n2)C1 (stereo not drawn) [Compound 302] | > 1250 | > 1250 | > 700

Compound | Ki [1] [nM] | Ki [2] [nM] | Ki [3] [nM]
CC(C)C[C@]1(O)CN(c2ccc(C(F)(F)F)c(-c3n[nH]c4ncccc34)n2)CC[C@H]1N [Compound 218] | < 500 | < 500 | < 50
CC(C)CC1(C(N)=O)CN(c2ccc(C(F)(F)F)c(-c3n[nH]c4ncccc34)n2)C1 [Compound 430] | > 1250 | > 1250 | > 700
Cc1cc(-c2n[nH]c3ncccc23)nc(N2CCNCC2)c1 [Compound 93] | > 2000 | > 1250 | > 700
FC(F)(F)c1ccc(N2CCN[C@@H](Cc3ccccc3)C2)nc1-c1n[nH]c2ncccc12 [Compound 121] | > 1250 | > 1250 | < 500
FC(F)(F)c1ccc(N2CCNCC2)nc1-c1n[nH]c2ncccc12 [Compound 8] | < 2800 | > 1250 | < 500
CCC(N)C1CCCN(c2ccc(F)c(-c3n[nH]c4ncccc34)n2)C1 (stereo not drawn) [Compound 291] | < 500 | < 2800 | < 50
CC1(C)CC1(O)C1CN(c2ccc(F)c(-c3n[nH]c4ncccc34)n2)CCN1 (stereo not drawn) [Compound 381] | < 500 | < 500 | < 1
CC(C)(C)C[C@H]1CN(c2ccc(F)c(-c3n[nH]c4ncccc34)n2)CCN1 [Compound 142] | < 500 | > 1250 | < 50
NC1CCCN(c2ccc(F)c(-c3n[nH]c4ncccc34)n2)C1 (stereo not drawn) [Compound 294] | > 1250 | > 1250 | < 500
FC(F)(F)c1ccc(C2CCNCC2)nc1-c1n[nH]c2ncccc12 [Compound 431] | > 1250 | > 1250 | > 700
CC(C)CC1(CN)CCCN(c2ccc(C(F)(F)F)c(-c3n[nH]c4ncccc34)n2)C1 (stereo not drawn) [Compound 352] | < 2800 | > 1250 | < 500
CC(O)(C1CC1)C1CN(c2ccc(F)c(-c3n[nH]c4ncccc34)n2)CCN1 (stereo not drawn) [Compound 247] | < 500 | < 2800 | < 50
Cc1ccccc1C1CN(c2cccc(-c3n[nH]c4ncccc34)n2)CCN1 (stereo not drawn) [Compound 32] | < 500 | < 500 | < 50
CC(C)(O)[C@H]1CN(c2cccc(-c3n[nH]c4ncccc34)n2)CCN1 [Compound 136] | < 500 | > 1250 | < 50
CC(C)CC1(CO)CN(c2ccc(F)c(-c3n[nH]c4ncccc34)n2)CCC1N (stereo not drawn) [Compound 293] | < 50 | < 500 | < 50
OC1([C@@H]2CN(c3ccc(F)c(-c4n[nH]c5ncccc45)n3)CCN2)CC1 [Compound 251] | < 500 | > 1250 | < 50
CCC1CN(c2ccc(C(F)(F)F)c(-c3n[nH]c4ncccc34)n2)CCC1C#N (stereo not drawn) [Compound 406] | > 1250 | > 1250 | < 500
OCC1CCN(c2ccc(C(F)(F)F)c(-c3n[nH]c4ncccc34)n2)CC1 [Compound 321] | > 1250 | > 1250 | > 700
NCC1CCCN(c2ccc(C(F)(F)F)c(-c3n[nH]c4ncccc34)n2)C1 (stereo not drawn) [Compound 128] | > 1250 | > 1250 | > 700
CC(C)CC1CN(c2ccc(C(F)(F)F)c(-c3n[nH]c4ncccc34)n2)CCC1CC#N (stereo not drawn) [Compound 450] | > 1250 | > 1250 | < 500
CC(C)C[C@H]1CN(c2cccc(-c3n[nH]c4ncccc34)n2)CC[C@H]1O [Compound 144] | < 2800 | > 1250 | < 50
Fc1ccc(C2CCNCC2)nc1-c1n[nH]c2ncccc12 [Compound 440] | > 1250 | > 1250 | < 500
CC(C)(C)C(N)C1CCN(c2ccc(F)c(-c3n[nH]c4ncccc34)n2)C1 (stereo not drawn) [Compound 421] | < 500 | > 1250 | < 50
NC[C@@H]1CCN(c2ccc(C(F)(F)F)c(-c3n[nH]c4ncccc34)n2)C1 [Compound 353] | > 1250 | > 1250 | > 700
NCC1CCN(c2cccc(-c3n[nH]c4ncccc34)n2)CC1 [Compound 64] | < 2800 | > 1250 | < 500
CC(C)C[C@@H]1C[C@@H](N)CN(c2ccc(C(F)(F)F)c(-c3n[nH]c4ncccc34)n2)C1 [Compound 365] | > 1250 | > 1250 | < 500
